Reference: patent US11040027B2, “Protein kinase inhibitors for promoting liver regeneration or reducing or preventing hepatocyte death” (HEPAREGENIX GMBH, priority 2017, dated 2021)

How the values were obtained:
JNK1 = JNK1 (Homo sapiens, UniProt P45983); experiment: KINOMEscan competition binding assay, selectivity JNK1 versus MKK4; conditions: ratio of percent of control
MKK7 = target: T1, MKK7 (Homo sapiens, UniProt O14733); experiment: KINOMEscan competition binding assay, selectivity MKK7 versus MKK4; conditions: Test conc. 0.1 μM; ratio of percent of control; N/E* per footnote
T1 sequence (O14733 1-419): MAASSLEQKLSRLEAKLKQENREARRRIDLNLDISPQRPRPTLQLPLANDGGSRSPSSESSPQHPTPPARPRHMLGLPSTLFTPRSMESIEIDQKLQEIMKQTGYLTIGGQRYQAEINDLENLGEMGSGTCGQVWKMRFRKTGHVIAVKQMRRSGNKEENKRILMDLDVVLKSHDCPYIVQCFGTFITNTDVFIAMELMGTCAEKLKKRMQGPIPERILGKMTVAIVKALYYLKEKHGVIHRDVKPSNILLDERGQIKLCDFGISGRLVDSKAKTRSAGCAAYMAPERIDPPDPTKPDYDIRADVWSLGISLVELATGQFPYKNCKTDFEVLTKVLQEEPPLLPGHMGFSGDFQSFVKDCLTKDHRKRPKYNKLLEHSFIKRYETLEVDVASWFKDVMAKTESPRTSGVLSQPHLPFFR

MKK4 = target: T2, MKK4 (Homo sapiens, UniProt P45985); experiment: KINOMEscan competition binding assay, MKK4; conditions: read-out: Potency MKK4 (derived from % of control values, PoC)
T2 sequence (P45985 84-399): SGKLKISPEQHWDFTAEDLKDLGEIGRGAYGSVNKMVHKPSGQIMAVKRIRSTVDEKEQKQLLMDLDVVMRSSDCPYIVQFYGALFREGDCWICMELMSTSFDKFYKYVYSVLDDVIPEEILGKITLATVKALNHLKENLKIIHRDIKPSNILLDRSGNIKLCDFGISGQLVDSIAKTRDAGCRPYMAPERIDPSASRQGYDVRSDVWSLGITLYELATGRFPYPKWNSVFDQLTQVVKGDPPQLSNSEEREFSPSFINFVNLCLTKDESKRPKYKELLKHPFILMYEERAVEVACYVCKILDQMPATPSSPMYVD

BRaf = BRaf (Homo sapiens, UniProt P15056); experiment: KINOMEscan competition binding assay, selectivity BRaf versus MKK4; conditions: Test conc. 0.1 μM; ratio of percent of control; N/E* per footnote
Protocol: The assay was performed by combining three components: DNA-tagged kinase; immobilized ligand; and a test compound. The ability of the test compound to compete with the immobilized ligand was measured via quantitative PCR of the DNA tag. The technology is described in detail in Fabian, M. A. et al. A small molecule-kinase interaction map for clinical kinase inhibitors. Nat. […] Nat.
The test compounds were provided as 10 mM stock solutions. The test solutions at indicated final concentrations were prepared at DiscoverX.

MEKK2 = target: T3, MEKK2 (Homo sapiens, UniProt Q9Y2U5); experiment: Radiometric protein kinase assay, MEKK2; format: biochemical; conditions: substrate Casein, ATP 0.2 μM; read-out: MEKK2 (potency derived from IC50-values)
T3 construct: purchased ProQinase 0583-0000-1
T3 sequence (Q9Y2U5 1-619): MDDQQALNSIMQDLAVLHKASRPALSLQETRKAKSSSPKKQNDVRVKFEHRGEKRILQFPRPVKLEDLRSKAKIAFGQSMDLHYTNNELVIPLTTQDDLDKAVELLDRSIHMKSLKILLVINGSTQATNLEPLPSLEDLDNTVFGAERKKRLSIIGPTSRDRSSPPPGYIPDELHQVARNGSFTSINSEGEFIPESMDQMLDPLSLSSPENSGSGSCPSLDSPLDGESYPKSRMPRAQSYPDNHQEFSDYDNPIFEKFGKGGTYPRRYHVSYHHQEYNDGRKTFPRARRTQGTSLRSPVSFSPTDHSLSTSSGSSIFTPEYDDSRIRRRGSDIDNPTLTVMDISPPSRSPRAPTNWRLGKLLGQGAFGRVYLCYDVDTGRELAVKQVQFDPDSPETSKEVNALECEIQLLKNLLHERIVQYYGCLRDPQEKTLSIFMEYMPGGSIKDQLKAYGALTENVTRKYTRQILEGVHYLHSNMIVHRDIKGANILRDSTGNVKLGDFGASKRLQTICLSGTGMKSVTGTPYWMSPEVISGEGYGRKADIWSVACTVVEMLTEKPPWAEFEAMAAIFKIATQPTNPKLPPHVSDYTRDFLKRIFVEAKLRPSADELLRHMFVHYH
Protocol: (§1) A radiometric protein kinase assay was used for measuring the kinase activity of the respective protein kinases. All kinase assays were performed in 96-well polypropylene plates. After the reactions were stopped, the assay mixtures were transferred to 96-well MSFC filter-plates (Millipore). The reaction mix was passed through the filter membrane by aspiration, the membrane was washed 3 times with 150 mM H3PO4, once with ethanol, dried and liquid scintillation cocktail was added. Radioactivity was determined by counting of the samples in a Microbeta multiwell scintillation counter (Wallac).
(§2) b) Single Kinases • 20 μl standard assay buffer • 5 μl compound in 10% DMSO • 20 μl enzyme-substrate mix • 10 μl of substrate solution
(§3) The reaction cocktails were incubated at 30° C. for 30 minutes.

MKK4 active = target: T4, MKK4 active (Homo sapiens, UniProt P45985); experiment: Radiometric protein kinase assay, MKK4 active; format: biochemical; conditions: substrate JNK1 KRKR, ATP 0.2 μM, read-out: MKK4 (potency derived from IC50-values)
T4 construct: purchased ProQinase 0948-0000-1
T4 sequence (P45985 1-399): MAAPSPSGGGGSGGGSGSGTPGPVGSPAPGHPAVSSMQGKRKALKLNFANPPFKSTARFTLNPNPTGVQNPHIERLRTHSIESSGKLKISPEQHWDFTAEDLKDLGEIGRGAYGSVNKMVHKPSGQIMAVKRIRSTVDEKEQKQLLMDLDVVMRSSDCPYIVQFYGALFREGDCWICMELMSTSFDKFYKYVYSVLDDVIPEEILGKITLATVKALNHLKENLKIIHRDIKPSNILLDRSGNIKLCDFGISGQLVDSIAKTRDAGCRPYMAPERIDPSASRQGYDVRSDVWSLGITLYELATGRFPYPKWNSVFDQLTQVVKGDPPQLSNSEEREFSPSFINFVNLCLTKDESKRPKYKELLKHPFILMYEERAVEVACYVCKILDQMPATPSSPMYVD
Protocol: as §1, §2, §3

[1] = Test conc 0.1 μM, N/E* = PoC for JNK1 = 100

Sequence of BRaf (P15056 whole entry): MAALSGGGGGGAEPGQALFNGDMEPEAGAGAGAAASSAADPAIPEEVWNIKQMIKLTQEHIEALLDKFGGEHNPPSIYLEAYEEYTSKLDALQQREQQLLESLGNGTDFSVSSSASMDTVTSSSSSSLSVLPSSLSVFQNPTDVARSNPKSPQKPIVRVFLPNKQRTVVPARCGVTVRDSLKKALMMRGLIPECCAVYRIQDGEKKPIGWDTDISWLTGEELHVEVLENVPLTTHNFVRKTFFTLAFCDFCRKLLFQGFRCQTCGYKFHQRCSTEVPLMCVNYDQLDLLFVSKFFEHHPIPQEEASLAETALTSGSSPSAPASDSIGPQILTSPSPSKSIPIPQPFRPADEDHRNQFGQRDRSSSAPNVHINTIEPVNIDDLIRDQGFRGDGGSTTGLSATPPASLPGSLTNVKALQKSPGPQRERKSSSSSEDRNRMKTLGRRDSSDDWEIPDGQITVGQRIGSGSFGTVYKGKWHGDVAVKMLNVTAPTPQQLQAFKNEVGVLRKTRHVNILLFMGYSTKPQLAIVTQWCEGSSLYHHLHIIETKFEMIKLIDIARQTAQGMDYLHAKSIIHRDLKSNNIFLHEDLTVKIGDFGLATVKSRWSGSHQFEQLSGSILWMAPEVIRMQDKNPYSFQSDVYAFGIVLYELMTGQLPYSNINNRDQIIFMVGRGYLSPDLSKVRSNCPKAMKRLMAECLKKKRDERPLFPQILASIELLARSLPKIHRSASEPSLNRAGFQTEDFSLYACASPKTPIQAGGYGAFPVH
Sequence of JNK1 (P45983 1-384 isoform P45983-2): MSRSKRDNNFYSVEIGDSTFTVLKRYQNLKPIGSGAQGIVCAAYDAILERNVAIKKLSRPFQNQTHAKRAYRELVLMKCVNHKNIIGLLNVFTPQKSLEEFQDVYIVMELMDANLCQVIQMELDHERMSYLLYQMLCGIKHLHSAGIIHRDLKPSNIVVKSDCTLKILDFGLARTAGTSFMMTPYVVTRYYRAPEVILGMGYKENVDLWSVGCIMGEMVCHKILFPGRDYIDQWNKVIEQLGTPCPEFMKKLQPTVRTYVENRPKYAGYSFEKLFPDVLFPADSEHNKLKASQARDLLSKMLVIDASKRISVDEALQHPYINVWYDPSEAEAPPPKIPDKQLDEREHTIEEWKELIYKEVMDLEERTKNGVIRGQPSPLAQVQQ

Row | Selectivity JNK1/MKK4 (JNK1; Test conc 10 μM) | Selectivity MKK7/MKK4 (MKK7) | remaining binding at 0.1 µM (MKK4) | Selectivity BRaf/MKK4 (BRaf) | IC50 (MEKK2) | IC50 (MKK4 active) | Selectivity JNK1/MKK4 (JNK1; [1]) | Structure (SMILES)
1 | >100 | 270 | < 10% | 4.2 | > 10000 nM | > 10000 nM |  | CCCS(=O)(=O)Nc1ccc(F)c(C(=O)c2c[nH]c3ncc(-c4ccc5c(c4)OCO5)cc23)c1F [Example 10, N-(3-(5-(Benzo[d][1,3]dioxol-5-yl)-1H-pyrrolo[2,3-b]pyridine-3-carbonyl)-2,4-difluorophenyl)propane-1-sulfonamide]
2 |  | 18 | < 10% | 14 | 1000 to 10000 nM | < 500 nM | N/E* (PoC for JNK1 = 100) | CCCS(=O)(=O)Nc1ccc(F)c(C(=O)c2c[nH]c3ncc(-c4cc5c(cc4Cl)OCCO5)cc23)c1F [Example 44, N-(3-(5-(7-Chloro-2,3-dihydrobenzo[b][1,4]dioxin-6-yl)-1H-pyrrolo[2,3-b]pyridine-3-carbonyl)-2,4-difluorophenyl)propane-1-sulfonamide]
3 |  | 8.7 | 10 to 30% | N/E* (PoC for JNK1 = 100) | > 10000 nM | 1000 to 10000 nM | 8.4 | CS(=O)(=O)Nc1cccc(C(=O)c2c[nH]c3ncc(-c4cc5c(cc4Cl)OCCO5)cc23)c1F [Example 48]
4 |  | N/E* (PoC for JNK1 = 100) | < 10% | N/E* (PoC for JNK1 = 100) | > 10000 nM | < 500 nM | 17 | CCCCS(=O)(=O)Nc1cccc(C(=O)c2c[nH]c3ncc(-c4ccc(OC)cc4Cl)cc23)c1F [Example 52]
5 | >100 | 10 | 10 to 30% | 10.5 | 1000 to 10000 nM | < 500 nM |  | CCCS(=O)(=O)Nc1ccc(F)c(C(=O)c2c[nH]c3ncc(-c4ccccc4Cl)cc23)c1F [Example 13, N-(3-(5-(2-Chlorophenyl)-1H-pyrrolo[2,3-b]pyridine-3-carbonyl)-2,4-difluorophenyl)propane-1-sulfonamide]
6 |  | N/E* (PoC for JNK1 = 100) | < 10% | N/E* (PoC for JNK1 = 100) | > 10000 nM | < 500 nM | 14 | CCCCS(=O)(=O)Nc1cccc(C(=O)c2c[nH]c3ncc(-c4cc5c(cc4Cl)OCO5)cc23)c1F [Example 55]
7 |  | N/E* (PoC for JNK1 = 100) | < 10% | N/E* (PoC for JNK1 = 100) | > 10000 nM | < 500 nM | 24 | CCCCS(=O)(=O)Nc1cccc(C(=O)c2c[nH]c3ncc(-c4cc5c(cc4Cl)OCCO5)cc23)c1F [Example 56]
8 | >100 | 3.0 | > 30% | 0.9 | > 10000 nM | 500 to 1000 nM |  | CCCS(=O)(=O)Nc1ccc(F)c(C(=O)c2c[nH]c3ncc(-c4ccc(C(C)C)cc4)cc23)c1F [Example 7, N-(2,4-Difluoro-3-(5-(4-isopropylphenyl)-1H-pyrrolo[2,3-b]pyridine-3-carbonyl)phenyl)propane-1-sulfonamide]
9 |  | N/E* (PoC for JNK1 = 100) | < 10% | 56 | 1000 to 10000 nM | < 500 nM | N/E* (PoC for JNK1 = 100) | CCCCS(=O)(=O)Nc1cccc(C(=O)c2c[nH]c3ncc(-c4ccc5c(c4)OCO5)cc23)c1F [Example 53]
10 |  | 9.7 | < 10% | N/E* (PoC for JNK1 = 100) | 1000 to 10000 nM | < 500 nM | 10 | CS(=O)(=O)Nc1cccc(C(=O)c2c[nH]c3ncc(-c4cc5c(cc4Cl)OCO5)cc23)c1F [Example 47]
